From patent EP4682143A1, “PHARMACEUTICAL COMPOSITION CONTAINING EGFR INHIBITOR, AND PREPARATION METHOD THEREFOR AND USE THEREOF” (Convalife Pharmaceuticals Co., Ltd., priority 2023, dated 2024)
Read-outs that look alike come from different tables or passages of the source.

Key:
[1] = test system: Cholangiocarcinoma PDX Model LD1-0060-200791; assay: Cholangiocarcinoma PDX model in vitro antiproliferation assay (CTG); format: cell-based; conditions: for IC50: 144 h; for IC50 / Maximum Inhibition Rate (%) / Minimum Inhibition Rate (%): cultured 6 days, CTG; for Slope: slope of inhibition curve
Experimental: Tumor tissues were surgically excised from the subcutaneous tumors of tumor-bearing mice and immersed in HBSS buffer. Non-tumor and necrotic tissues were removed in a biosafety cabinet, and the tissues were cut into small pieces of 1-3 mm^3. Tumor pieces were digested with collagenase at 37°C for 1-2 hours. Single-cell suspensions were collected through a mesh, and centrifuged at 1200 rpm for 3 minutes to remove the supernatant. […] High-concentration drug stocks were diluted 1000× with BIO-MPM-1 medium to prepare 20× intermediate concentrations. Each well of a 96-well plate received 7.5 µL of the corresponding 20× drug solution or BIO-MPM-1 containing 2% DMSO (final DMSO concentration 0.2%). Then 135 µL of cell suspension was added per well. Cells were cultured continuously for 6 days at 37°C. Afterwards, 50 µL of CTG reagent was added per well. After mixing, 80 µL of the solution was measured in a multifunctional microplate reader for ATP content. Signals from each well were recorded to generate inhibition curves and calculate parameters such as IC50.
Inhibition curves were plotted using Xlfit (IDBS) to determine parameters including maximum inhibition, minimum inhibition, absolute IC50, relative IC50, and slope.
Proliferation rate (fold increase) was calculated as: Proliferation rate = (Vday6Control−Vday6Blank)/(Vday0Control−Vday0Blank) [formula]

[2] = test system: Ba/F3-EGFR-G719S cell line; assay: CellTiter-Glo (CTG) cell proliferation assay (Example A); format: cell-based; conditions: 72 hours, highest test concentration 1 µM
Experimental: Due to its high sensitivity and simple workflow, it is currently a widely used cell viability assay.
Cell viability was assessed by trypan blue exclusion to ensure viability above 90%. • c) Cells were adjusted to the desired density with complete growth medium and seeded into 96-well plates at 3,000 cells per well in 90 µL medium. • d) The seeded 96-well plates were incubated at 37°C under 5% CO2. • e) Ten-fold stock solutions of each compound were prepared, with the highest test concentration of 1 µM. Nine concentrations were generated by four-fold serial dilution. Subsequently, 10 µL of each diluted compound was transferred into the corresponding wells of the 96-well plates, with triplicate wells for each concentration. • f) The compound-treated 96-well plates were incubated for an additional 72 hours at 37°C under 5% CO2, followed by CTG analysis. • g) The CTG reagent was thawed and the cell plates were equilibrated to room temperature for 30 minutes. • h) An equal volume of CTG reagent was added to each well. • i) The plates were shaken on a plate shaker for 5 minutes to induce cell lysis. • j) Plates were incubated at room temperature for 20 minutes to stabilize the luminescent signal. • k) Luminescence was measured and data were collected.
Data were analyzed using GraphPad Prism 7.0 software. Nonlinear sigmoidal regression was applied to fit the dose-response curves, from which IC50 values were calculated.
Cell viability (%) was determined according to the following equation: Cell viability(%) = (Lumcompound−Lummedium control)/(Lumvehicle control−Lummedium control) × 100% [formula]

| IC50 [2] [nM] | Compound | IC50 ([1]; read-out: Absolute IC50) [nM] | IC50 ([1]; read-out: Relative IC50) [nM] | Maximum Inhibition Rate (%) [1] [%] | Minimum Inhibition Rate (%) [1] [%] | Slope [1] |
| --- | --- | --- | --- | --- | --- | --- |
| 2.06 | CCOc1cc2ncc(C#N)c(Nc3ccc(OCc4ccccn4)c(Cl)c3)c2cc1NC(=O)/C=C/CN1CC(F)(F)C1 [Compound A0903, (E)-N-(4-((3-chloro-4-(pyridin-2-ylmethoxy)phenyl)amino)-3-cyano-7-ethoxyquinolin-6-yl)-4-(3,3-difluoroazetidin-1-yl)but-2-enamide] | – | – | – | – | – |
| 69.6 | C=C(CN1CC(N(C)C)C1)C(=O)Nc1cc2c(Nc3ccc(OCc4ccccn4)c(Cl)c3)c(C#N)cnc2cc1OCC [Compound A0905, N-(4-((3-chloro-4-(pyridin-2-ylmethoxy)phenyl)amino)-3-cyano-7-ethoxyquinolin-6-yl)-2-((3-(dimethylamino)azetidin-1-yl)methyl)propenamide] | – | – | – | – | – |
| 152 | C=C(CN1CCC(N(C)C)CC1)C(=O)Nc1cc2c(Nc3ccc(OCc4ccccn4)c(Cl)c3)c(C#N)cnc2cc1OCC [Compound A0906, N-(4-((3-chloro-4-(pyridin-2-ylmethoxy)phenyl)amino)-3-cyano-7-ethoxyquinolin-6-yl)-2-((4-(dimethylamino)piperidin-1-yl)methyl)propenamide] | – | – | – | – | – |
| 2.18 | (E)-N-(4-((3-chloro-4-(pyridin-2-ylmethoxy)phenyl)amino)-3-cyano-7-ethoxyquinolin-6-yl)-4-(methanesulfonamido)but-2-enamide [Compound A0904] | – | – | – | – | – |

Continued, compound first:

| Compound | IC50 [2] [nM] | IC50 ([1]; read-out: Absolute IC50) [nM] | IC50 ([1]; read-out: Relative IC50) [nM] | Maximum Inhibition Rate (%) [1] [%] | Minimum Inhibition Rate (%) [1] [%] | Slope [1] |
| --- | --- | --- | --- | --- | --- | --- |
| CNCc1ccc(-c2cc3cc(F)cc(C(N)=O)c3o2)cc1 [CVL218] | – | 5770 | 7080 | 110.0 | 6.4 | 1.57 |
| c1cc(-c2nc(N3CCOCC3)c3oc4ccc(CN5CC6CC5CO6)cc4c3n2)c2cc[nH]c2c1 (stereo not drawn) [CVL237] | – | 3480 | 3410 | 99.5 | -10.0 | 9.51 |
| CCOc1cc2ncc(C#N)c(Nc3ccc(OCc4ccccn4)c(Cl)c3)c2cc1NC(=O)/C=C/CN(C)C.O=C(O)/C=C\C(=O)O [Compound A009, (E)-N-(4-(3-chloro-4-(pyridin-2-ylmethoxy)anilino)-3-cyano-7-ethoxyquinolin-6-yl)-4-(dimethylamino)but-2-enamide maleate, reference compound] | – | 3310 | 3260 | 99.2 | -10.0 | 13.13 |
| CCOc1cc2ncc(C#N)c(Nc3ccc(OCc4ccccn4)c(Cl)c3)c2cc1NC(=O)/C=C/CN1CC(N(C)C)C1 [Compound A0901, (E)-N-(4-((3-chloro-4-(pyridin-2-ylmethoxy)phenyl)amino)-3-cyano-7-ethoxyquinolin-6-yl)-4-(3-(dimethylamino)azetidin-1-yl)but-2-enamide] | 16.8 | – | – | – | – | – |
| (E)-N-(4-((3-chloro-4-(pyridin-2-ylmethoxy)phenyl)amino)-3-cyano-7-ethoxyquinolin-6-yl)-4-(3,3-difluoroazetidin-1-yl)but-2-enamide [Compound A0902] | 2.53 | – | – | – | – | – |
